Results on 21 molecules are retold here after patent US4678787A, “4H-1-benzopyran-4-ones and their sulfur containing analogs” (Warner-Lambert Company, priority 1985, dated 1987).

Bounds are passed on as bounds.

The subject of assay [1] is exploratory locomotor activity in mice. The assay can be described thus: Inhibition of exploratory locomotor activity, mouse IP (McLean et al. screen). The assay is classed as in vivo. The following applies: read-out: Inh. Loc. Act. (mouse IP) (ED50). The source says: (§1) All compounds shown in the following Table 1 are active in laboratory tests that have been useful as predictors of antipsychotic efficacy (e.g., treatment of schizophrenia). Among these tests described by J. R. McLean, R. B. Parker, and L. L. Coughenour in Pharmacol. Biochem. Behav. 1978 (8) 97, is one which screens for compounds that decrease exploratory locomotor activity in mice and rats without causing ataxia. […] All known antipsychotic agents are active in this test. Our compounds are also active at doses as low as 0.35 mg/kg.

For assay [2], the system named is exploratory locomotor activity in rats. The assay can be described thus: Inhibition of exploratory locomotor activity, rat PO (McLean et al. screen). As to conditions: read-out: Inh. Loc. Act. (rat PO) (ED50). It counts as in vivo.
Excerpt: as §1

The test system of the next assay is synthesis of dopamine. The assay can be described thus: Dopamine synthesis in rats treated with gamma-butyrolactone (GBL). It counts as in vivo, rat.

Usually ED50 stands for the dose that gives a 50% effect, or the effect in half of the subjects.

For the molecule `O=c1ccoc2cc(OCCCN3CC=C(c4ccccc4)CC3)ccc12` [compound 1, 7-[3-(4-Phenyl-1,2,3,6-tetrahydro-1-pyridyl)propoxy]-4H-1-benzopyran-4-one], the median effective dose (ED50) is 0.7 mg/kg in assay [1] and 29.5 mg/kg in assay [2]. Further, in the assay on synthesis of dopamine, the synthesis of dopamine entry was “inhibition of the synthesis of dopamine”.

With `O=c1ccoc2cc(OCCCN3CCN(c4ccccc4)CC3)ccc12` [compound 2, 7-[3-(4-phenylpiperazinyl)propoxy]-4H-1-benzopyran-4-one], the ED50 turned out to be 2.4 mg/kg in assay [1] and 4.3 mg/kg in assay [2].

`O=c1ccoc2cc(OCCCN3CCN(c4ccc(Cl)cc4)CC3)ccc12` [compound 3]: the ED50 in assay [1] was determined as 11.1 mg/kg; in assay [2], 18.6 mg/kg.

Turning to `Cc1cccc(N2CCN(CCCOc3ccc4c(=O)ccoc4c3)CC2)c1C` [compound 4], the values for the ED50 in assay [1] and in assay [2] were 11.2 mg/kg and 13.2 mg/kg, respectively.

`O=c1ccoc2cc(OCCCN3CCN(c4cccc(Cl)c4)CC3)ccc12` [compound 5]: the values for the ED50 in assay [1] and in assay [2] were 7.7 mg/kg and 8.5 mg/kg, respectively.

With `COc1ccccc1N1CCN(CCCOc2ccc3c(=O)ccoc3c2)CC1` [compound 6], the figures for the ED50 in assay [1] and in assay [2] were 7.7 mg/kg and above 30 mg/kg, respectively.

On to `O=c1ccoc2cc(OCCCN3CCC(c4ccccc4)CC3)ccc12` [compound 7, 7-[3-(4-Phenyl-1-piperidinyl)propoxy]-4H-1-benzopyran-4-one], for which the ED50 was 14.8 mg/kg in assay [1] and above 30 mg/kg in assay [2].

With `Cc1ccccc1N1CCN(CCCOc2ccc3c(=O)ccoc3c2)CC1` [compound 8], the ED50 in assay [1] came out at 2 mg/kg; in assay [2], 30 mg/kg.

For `Cc1cccc(N2CCN(CCCOc3ccc4c(=O)ccoc4c3)CC2)c1` [compound 9], the ED50 was found to be 5.4 mg/kg in assay [1] and 4.8 mg/kg in assay [2].

`Cc1ccc(N2CCN(CCCOc3ccc4c(=O)ccoc4c3)CC2)cc1` [compound 10]: the ED50 in assay [1] turned out to be 6.1 mg/kg; in assay [2], 22.3 mg/kg.

With `O=c1ccoc2cc(OCCCN3CCN(c4ccc(F)cc4)CC3)ccc12` [compound 11], the ED50 in assay [1] amounted to 7 mg/kg; in assay [2] it was 7.1 mg/kg.

As for `O=c1ccoc2cc(OCCCN3CCN(c4ccccn4)CC3)ccc12` [compound 12], the ED50 in assay [1] was 5 to 6 mg/kg; in assay [2], 1.7 mg/kg.

As to `O=c1ccoc2cc(OCCCN3CCN(c4ccccc4Cl)CC3)ccc12` [compound 13, 7-[3-(4-(2-Chlorophenyl)-1-piperazinyl)propoxy]-4H-1-benzopyran-4-one], in assay [1], the 50% effective dose (ED50) is above 30 mg/kg.

`O=c1ccoc2cc(OCCCN3CCN(c4ccc(Cl)c(Cl)c4)CC3)ccc12` [compound 14]: the ED50 in assay [1] was 14 to 15 mg/kg; in assay [2], 17.8 mg/kg.

In the case of `COc1ccc(N2CCN(CCCOc3ccc4c(=O)ccoc4c3)CC2)cc1` [compound 15], the ED50 in assay [1] is 30 mg/kg; in assay [2], above 30 mg/kg.

For `O=c1ccoc2cc(OCCCN3CCN(c4cccc(O)c4)CC3)ccc12` [compound 16], in assay [1], the ED50 is above 30 mg/kg.

As for `Cc1ccc(N2CCN(CCCOc3ccc4c(=O)ccoc4c3)CC2)cc1C` [compound 17], the ED50 in assay [1] is 3 mg/kg; in assay [2] it was 7.3 mg/kg.

For the molecule `O=c1ccoc2cccc(OCCCN3CCN(c4ccccc4)CC3)c12` [compound 18, 5-3-(4-phenyl-1-piperazinyl)propoxyl-4H-1-benzopyran-4-one], the ED50 came out at 13.3 mg/kg in assay [1] and 15.6 mg/kg in assay [2].

`O=c1ccoc2ccc(OCCCCN3CCN(c4ccccc4)CC3)cc12` [compound 19, 6-[4-(4-phenyl-1-piperazinyl)butoxy]-4H-1-benzopyran-4-one]: the ED50 was determined as 3 mg/kg in assay [1] and 1.5 mg/kg in assay [2].

`O=c1ccoc2cc(OCCCCN3CCN(c4ccccc4)CC3)ccc12` [compound 20, 7-[4-(4-Phenyl-1-piperazinyl)butoxy]-4H-1-benzopyran-4-one]: the ED50 was 0.35 mg/kg in assay [1] and 1.9 mg/kg in assay [2].

With `O=c1ccoc2cc(OCCCN3CCN(c4ncccn4)CC3)ccc12` [compound 21], the ED50 in assay [1] was 23.7 mg/kg; in assay [2] it was above 30 mg/kg.
